# Tested on: U2OS cells expressing HaloTag–H2B
# Assay: Dye loading kinetics
# Type: cell-based
# Conditions: 200 nM
# Protocol: U2OS cell culture, labeling, and fluorescence microscopy. U2OS cells (ATCC) were cultured in Dulbecco's modified Eagle medium (DMEM, phenol red-free; Life Technologies) supplemented with 10% (v/v) fetal bovine serum (FBS, Life Technologies), 1 mM GlutaMAX (Life Technologies) and maintained at 37 °C in a humidified 5% (v/v) CO2 environment. These cell lines undergo regular mycoplasma testing by the Janelia Cell Culture Facility. U2OS cells stably expressing an integrated HaloTag–histone H2B fusion protein (U2OS.H2B.HaloTag) were used for nuclear imaging and imaged 18–24 h post-plating. […]
# Fixed cells were then washed
# 3× in 1× PBS and incubated with Hoechst 33342 (5µg/mL) for 15 min at 22 °C as a nuclear counterstain. Airyscan imaging was performed on a Zeiss LSM 980 with Airyscan 2 confocal microscope using a Plan APO 63×/1.4 oil DIC M27 objective. The same acquisition settings were used for all constructs labeled with 13HTL–16HTL. These single plane images were bulk processed in ZEN Blue (Zeiss) with automatic Airyscan settings.
# Dye loading kinetics. Live U2OS.H2B.HaloTag stable cells were labeled over a time course of 0–4 h with 200 nM of biotin-JF549-HaloTag ligand (13HTL), biotin-JF608-HaloTag ligand (14HTL), biotin-JF646-HaloTag ligand (15HTL), or biotin-JF635-HaloTag ligand (16HTL) at 37 °C. Cells were […]
# then washed 3× with dye-free media, fixed with 4% paraformaldehyde in 0.1 M phosphate buffer, pH 7.4 for 15 min at 37 °C. Confocal imaging was performed on a Leica SP8 with an HC PL APO CS2 20×/0.75 immersion objective using the tunable white light laser ( WLL) to excite dyes at their λabs in constant power mode. Fluorescence was quantified as the average integrated density of background corrected nuclear signals from confocal image stack projections analyzed in Fiji;14 n = 100 nuclear signals per compound. […]
# (IB) consisting of KCl (0.18 M), ethylene glycol-bis(β-aminoethyl ether)-N,N,N′,N′-tetraacetic acid (EGTA; 1 mM), 3-(N-morpholino)propanesulfonic acid (MOPS; 5 mM); the pH was adjusted to pH = 7.35 using KOH(aq).15 StrepTactin Microbeads (IBA Lifesciences, 6-5510-050) were used as capture reagents as these beads had lowest amount of background observed in our hands. […]
# The post-bead supernatant and wash volumes were pooled and spun at 15,000 g for 12 min. […] The affinity capture pulldown efficiency was monitored using in-gel fluorescence. The msGFP signal from HaloTag-TEV-4×GS-msGFP-mito after cell lysis and SDS-PAGE was analyzed, in-gel, using a Bio-Rad Chemidoc MP imager (Bio-Rad) through GFP fluorescence excitation and emission filters. Data were quantified by densitometry using Fiji.14 Capture efficiency was […]
SMILES,time to maximal intensity,intracellular labeling over 4 h
"C[Si]1(C)C2=CC(=[N+]3CC(C(=O)NCCOCCOCCNC(=O)CCCC[C@@H]4SC[C@@H]5NC(=O)N[C@@H]54)C3)C=CC2=C(c2cc(C(=O)NCCOCCOCCCCCCCl)ccc2C(=O)[O-])c2ccc(N3CCC3)cc21 (stereo partly shown) [15HTL, biotin–JF646–HaloTag ligand]",1 h,–
"O=C(CCCCC1SCC2NC(=O)NC21)NCCOCCOCCNC(=O)C1C[N+](=c2ccc3c(-c4cc(C(=O)NCCOCCOCCCCCCCl)ccc4C(=O)[O-])c4ccc(N5CCC5)cc4oc-3c2)C1 (stereo not shown) [13HTL, biotin–JF549–HaloTag ligand]",–,negligible intracellular labeling
"CC1(C)C2=CC(=[N+]3CC(C(=O)NCCOCCOCCNC(=O)CCCC[C@@H]4SC[C@@H]5NC(=O)N[C@@H]54)C3)C=CC2=C(c2cc(C(=O)NCCOCCOCCCCCCCl)ccc2C(=O)[O-])c2ccc(N3CCC3)cc21 (stereo partly shown) [14HTL, biotin–JF608–HaloTag ligand]",4 h,–
"C[Si]1(C)C2=CC(=[N+]3CC(F)(C(=O)NCCOCCOCCNC(=O)CCCC[C@@H]4SC[C@@H]5NC(=O)N[C@@H]54)C3)C=CC2=C(c2cc(C(=O)NCCOCCOCCCCCCCl)ccc2C(=O)[O-])c2ccc(N3CC(F)C3)cc21 (stereo partly shown) [16HTL, biotin–JF635–HaloTag ligand]",1 h,–
